{
  "source": "patent US20230372337A1",
  "about": "“Combination Therapy Comprising an AXL Inhibitor” (BERGENBIO ASA, priority 2020, published 2023)",
  "tested_on": "LL2 cells",
  "experiment": "qRTPCR of IFN related genes in Lewis lung carcinoma (LL2) cells in vitro (Example 4)",
  "format": "cell-based, mouse",
  "details": "Doxorubicin 50 nM, 48 hours",
  "procedure": "4T1 cells (ATCC, CRL-2539) were cultured in RPMI-1640 (Sigma, Cat. #R8758) supplemented with 10% fetal bovine serum (FBS), L-glutamine (4 mM), streptomycin (5 μg/ml) and penicillin (5 U/ml). […] Lewis lung carcinoma cells LL/2 (LLC1) (ATCC, CRL-1642™) were cultured in Dulbecco's Modified Eagle's Medium ATCC® 30-2002™ (4 mM L-glutamine, 4500 mg/L glucose, 1 mM sodium pyruvate, and 1500 mg/L sodium bicarbonate).\nRNA was extracted from snap frozen tumors using the RNEasy Microarray Tissue Mini kit from Qiagen following the manufacturer's instructions. As tumors contained Doxorubicin and powderizing them could expose personnel to harmful substances, the RNA was extracted in a closed system using the GentleMACS dissociator and M Tubes. Purity and concentration of RNA was measured using Nanodrop. RT^2 Profiler™ PCR Array. cDNA was synthesized from RNA using the RT^2 First Strand kit (Qiagen) according to the manufacturer's instructions. cDNA was mixed with RT^2 SYBR Green Mastermix (Qiagen) and loaded into RT^2 Profiler™ PCR Array Mouse Type I Interferon Response or RT^2 Profiler™ PCR Array Mouse Epithelial to Mesenchymal Transition (EMT), analyzing the expression of the genes listed in Table 17. The plates were analyzed using Light Cycler 480 (Roche) and data were analyzed using the Qiagen Data Analysis Centre and Graph Pad (Prism).\nChemotherapeutic agents commonly used to treat lung cancer patients were evaluated for effects on the IFN response. Cisplatin, navelbine and docetaxel were tested in vitro in combination with bemcentinib.\nThe IC50 of the different drugs were calculated by resazurin viability assay. […] The cells were treated for 48 hours.",
  "data": [
    {"smiles": "COc1cccc2c1C(=O)c1c(O)c3c(c(O)c1C2=O)C[C@@](O)(C(=O)CO)C[C@@H]3O[C@H]1C[C@H](N)[C@H](O)[C@H](C)O1", "note": "[Doxorubicin, doxorubicin]", "values": [
      {"measurement": "ISG significantly upregulated compared to control (number)", "value": "limited IFN response"}
    ]}
  ]
}
